Measurements taken from patent US12618082B2, “Engineered muscle targeting compositions” (priority 2020, dated 2026).
“Also recorded” adds a separate entry of the source.

Legend:
[1] = biological target: T1, αV-containing integrin heterodimers (Homo sapiens, UniProt P06756); test: Small molecule pan-αV integrin antagonist inhibition of transduction, human primary myotubes; assay type: cell-based; settings: increasing concentrations of the antagonist; capsid named in the value
T1 construct: endogenous in cells; host or cells: human primary skeletal muscle myotubes differentiated from Lonza myoblasts
T1 sequence (P06756 31-889 limits assumed): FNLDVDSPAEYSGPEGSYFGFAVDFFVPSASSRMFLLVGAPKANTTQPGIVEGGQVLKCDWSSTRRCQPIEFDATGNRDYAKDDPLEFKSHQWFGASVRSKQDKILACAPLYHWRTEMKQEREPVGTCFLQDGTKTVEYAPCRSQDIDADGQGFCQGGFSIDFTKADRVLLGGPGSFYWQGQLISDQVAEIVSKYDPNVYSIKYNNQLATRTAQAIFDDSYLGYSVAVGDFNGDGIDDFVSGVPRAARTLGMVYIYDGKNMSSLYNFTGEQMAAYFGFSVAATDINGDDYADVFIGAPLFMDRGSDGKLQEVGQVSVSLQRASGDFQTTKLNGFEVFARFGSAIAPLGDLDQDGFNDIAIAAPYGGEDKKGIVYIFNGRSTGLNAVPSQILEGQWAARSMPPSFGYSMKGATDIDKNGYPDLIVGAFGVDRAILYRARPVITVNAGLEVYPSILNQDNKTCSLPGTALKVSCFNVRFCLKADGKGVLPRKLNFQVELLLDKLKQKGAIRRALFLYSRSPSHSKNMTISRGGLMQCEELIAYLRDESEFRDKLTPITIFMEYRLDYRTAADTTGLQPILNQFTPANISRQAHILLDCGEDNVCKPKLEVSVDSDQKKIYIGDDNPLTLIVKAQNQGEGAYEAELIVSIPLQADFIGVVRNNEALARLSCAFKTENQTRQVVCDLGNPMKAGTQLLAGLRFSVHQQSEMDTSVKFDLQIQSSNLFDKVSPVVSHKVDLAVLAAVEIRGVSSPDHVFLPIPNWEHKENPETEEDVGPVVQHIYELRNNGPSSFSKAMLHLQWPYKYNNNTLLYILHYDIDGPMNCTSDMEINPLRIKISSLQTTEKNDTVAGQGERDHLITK
T1 sequence (P06756 891-1048 limits assumed): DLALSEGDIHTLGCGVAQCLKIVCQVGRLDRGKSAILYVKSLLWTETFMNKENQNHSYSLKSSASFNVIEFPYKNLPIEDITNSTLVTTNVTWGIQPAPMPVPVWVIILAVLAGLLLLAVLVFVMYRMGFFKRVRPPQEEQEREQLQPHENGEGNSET
Method: (§1) Pan-alpha V integrin antagonists CWHM-12 and GLPG0187 (MedChem Express), or anti-αVβ6 antibody (ab77906, abcam) were diluted in DMEM containing 2% horse serum at the specified concentrations. Media was removed from differentiated myotubes and replaced with the diluted inhibitors, after which the myotubes were incubated on ice for 30 minutes to inhibit endocytosis. Following this incubation, AAV9-, MyoAAV-, or EMyoAAV-CK8-Nluc were added to the cells at 5E+3 vg/cell and the plates were transferred back to the tissue culture incubators. 24 hours after transduction, luciferase intensity was measured with the Nano-Glo Luciferase Assay (Promega).

[2] = biological target: T2, αV-containing integrin heterodimers (Mus musculus, UniProt P43406); test: Small molecule pan-αV integrin antagonist inhibition of transduction, mouse primary myotubes; assay type: cell-based; settings: increasing concentrations of the antagonist; capsid named in the value
T2 construct: endogenous in cells; host or cells: mouse primary myotubes differentiated from C57BL/6J satellite cells
T2 sequence (P43406 31-1044): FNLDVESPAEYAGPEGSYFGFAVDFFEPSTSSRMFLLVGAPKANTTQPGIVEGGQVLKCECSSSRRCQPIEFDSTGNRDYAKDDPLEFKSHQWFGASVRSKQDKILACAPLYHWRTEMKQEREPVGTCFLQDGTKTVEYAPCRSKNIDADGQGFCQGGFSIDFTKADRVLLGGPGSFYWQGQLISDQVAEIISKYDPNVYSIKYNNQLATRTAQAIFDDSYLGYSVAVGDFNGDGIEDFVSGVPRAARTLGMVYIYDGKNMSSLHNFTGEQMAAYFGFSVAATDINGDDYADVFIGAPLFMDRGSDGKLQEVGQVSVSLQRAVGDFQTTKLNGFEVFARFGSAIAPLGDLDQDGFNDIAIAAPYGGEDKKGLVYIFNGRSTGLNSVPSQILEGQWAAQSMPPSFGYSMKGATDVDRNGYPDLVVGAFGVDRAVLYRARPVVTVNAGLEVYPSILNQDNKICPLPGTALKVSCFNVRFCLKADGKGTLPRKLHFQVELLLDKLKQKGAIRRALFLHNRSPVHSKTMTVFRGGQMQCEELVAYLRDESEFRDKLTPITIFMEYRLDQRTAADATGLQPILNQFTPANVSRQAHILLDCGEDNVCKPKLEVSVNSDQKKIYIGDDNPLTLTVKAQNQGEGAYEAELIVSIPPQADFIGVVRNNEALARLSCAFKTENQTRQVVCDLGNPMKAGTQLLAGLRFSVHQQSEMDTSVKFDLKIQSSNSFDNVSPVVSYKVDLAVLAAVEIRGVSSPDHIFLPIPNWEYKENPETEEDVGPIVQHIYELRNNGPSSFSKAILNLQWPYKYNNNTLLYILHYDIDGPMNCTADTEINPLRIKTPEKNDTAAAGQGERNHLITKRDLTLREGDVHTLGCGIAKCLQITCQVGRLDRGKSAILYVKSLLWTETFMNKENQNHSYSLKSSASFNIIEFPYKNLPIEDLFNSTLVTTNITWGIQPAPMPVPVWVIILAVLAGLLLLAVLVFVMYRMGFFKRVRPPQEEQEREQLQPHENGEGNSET
Method: as §1

| SMILES | effect of the pan-αV integrin antagonist on AAV transduction efficiency, human primary myotubes [1] | effect of the pan-αV integrin antagonist on AAV transduction efficiency, mouse primary myotubes [2] |
| --- | --- | --- |
| COc1ccc(S(=O)(=O)N[C@@H](CNc2nc(C)nc(N3CCC(c4ccc5c(n4)NCCC5)CC3)c2C)C(=O)O)cc1 [GLPG-0187] | dose-dependent decrease in the transduction efficiency of EMyoAAV; also recorded: impeded MyoAAV 1A transduction in a dose-dependent manner; also recorded: dose-dependent decrease in the transduction efficiency of MyoAAV 2A; also recorded: dose-dependent decrease in transduction for all the 4 variants | impeded MyoAAV 1A transduction in a dose-dependent manner |
| CC(C)(C)c1cc(Br)cc([C@H](CC(=O)O)NC(=O)CNC(=O)c2cc(O)cc(NC3=NCC(O)CN3)c2)c1 (stereo partly shown) [CWHM-12] | impeded MyoAAV 1A transduction in a dose-dependent manner | impeded MyoAAV 1A transduction in a dose-dependent manner |
